In PubChem BioAssay AID1259407 (Chemical Carcinogenesis Research Information System (CCRIS), 2018):
Active and inactive are the calls of the source. How the calls were made is not given here.

System: CCRIS mutagenicity, Ames/micronucleus/aberration tests
Test: CCRIS mutagenicity studies
Conditions: Test System: AMES SALMONELLA TYPHIMURIUM, Method: STANDARD PLATE
[1] = Strain/Indicator: TA100, Metabolic Activation: NONE

| SMILES | mutagenic call (Strain/Indicator: TA96, Metabolic Activation: RAT, LIVER, S-9, AROCLOR 1254) | mutagenic call (Strain/Indicator: TA97, Metabolic Activation: RAT, LIVER, S-9, AROCLOR 1254) | mutagenic call (Strain/Indicator: TA98, Metabolic Activation: RAT, LIVER, S-9, AROCLOR 1254) | mutagenic call (Strain/Indicator: TA100, Metabolic Activation: RAT, LIVER, S-9, AROCLOR 1254) | mutagenic call (Strain/Indicator: TA102, Metabolic Activation: RAT, LIVER, S-9, AROCLOR 1254) | mutagenic call (Strain/Indicator: TA104, Metabolic Activation: RAT, LIVER, S-9, AROCLOR 1254) | mutagenic call (Strain/Indicator: TA1538, Metabolic Activation: NONE) | mutagenic call (Strain/Indicator: TA1538, Metabolic Activation: RAT, LIVER, MICROSOMES, 3-METHYLCHOLANTHRENE) | mutagenic call (Strain/Indicator: TA1538, Metabolic Activation: RAT, LIVER, MICROSOMES, AROCLOR 1254) | mutagenic call (Strain/Indicator: TA1538, Metabolic Activation: RAT, LIVER, MICROSOMES, PHENOBARBITAL) | mutagenic call (Strain/Indicator: TA1538, Metabolic Activation: RAT, LIVER, MICROSOMES) | mutagenic call (Strain/Indicator: TA1538, Metabolic Activation: RAT, LIVER, S-9, AROCLOR 1254) | mutagenic call (Strain/Indicator: TA98, Metabolic Activation: NONE) | mutagenic call [1] |
| --- | --- | --- | --- | --- | --- | --- | --- | --- | --- | --- | --- | --- | --- | --- |
| CC1=CC(=C(C#N)C#N)C=C(C=Cc2ccc(N(C)C)cc2)O1 | active; positive | active; positive | active; positive | active; positive | active; positive | active; positive | inactive; negative | active; positive | active; positive | active; positive | active; positive | active; positive | – | – |
| [N-]=[N+]=NC[C@H]1O[C@H](O)[C@H](O)[C@@H](O)[C@@H]1O | – | – | – | – | – | – | – | – | – | – | – | – | inactive; negative | active; positive |
| c1ccc(COC[C@@H]2CO2)cc1 | – | – | – | – | – | – | – | – | – | – | – | – | – | active; positive |
